Data on twelve compounds can be found in article PMC5653750, “hiPSC-CM Monolayer Maturation State Determines Drug Responsiveness in High Throughput Pro-Arrhythmia Screen” (Scientific Reports, 2017).

Data set [1] deals with mature hiPSC-CM monolayers. The data set can be described thus: 96-well optical mapping of action potentials (FluoVolt), mature monolayers. The format is cell-based, human. Conditions: for Maximum APD 80 Prolongation Risk Score (Mature hiPSC-CM): maximal effect on APD independent of dose, APD80 divided by vehicle control APD80, 30 min treatment, concentrations up to 10 µM; for effect on action potential duration (APD80), mature monolayers: spontaneous action potentials, result in words. An excerpt: (§1) hiPSC-CMs were used from two different commercial sources: Cellular Dynamics International (CDI, Madison WI) and Cellartis (Takara Bio USA). Custom made 96-well plates with inserts of PDMS (Polydimethylsiloxane) were generated essentially as before. PDMS vulcanized silicone transparent sheeting was obtained from SMI (Specialty Manufacturing, Inc, Saginaw, MI) with 40D (D, Durometer or ≈1000 kPa) hardness and 9 mm diameter coverslips were cut out to fit in each well of 96 well plates. PDMS coverslips were manually added to each well of 96 well plates (Corning) and each plate was subsequently sterilized via ethylene oxide sterilization. PDMS coverslips were then matrigel-coated (500 μg/mL; BD Biosciences, San Jose, CA) prior to plating hiPSC-CMs. Thawing and plating of cryopreserved vials of cells into 96-well plates was as essentially described before. Briefly, 5 × 10^4 cells were plated per well and allowed to form continuous monolayers and maintained in RPMI (Life Technologies) media supplemented with B27 + insulin (Life Technologies). Monolayers were maintained in culture for seven days before electrophysiological testing. Immature fetal-like hiPSC-CM monolayers were generated in 96 well plates without the PDMS coverslip inserts. Fetal-like hiPSC-CMs were also plated on matrigel coated plastic bottoms.
(§2) Optical mapping was performed as essentially described recently[22] with slight modification. A schematic of the 96-well plate optical mapping set up is shown in supplemental Fig. 1. In this assay a 96-well plate is positioned below a high speed CCD camera (200 fps, 80 × 80 pixels) on a heating block to enable recording at physiological temperature (37 °C). hiPSC-CM monolayers were loaded with the membrane potential dye called FluoVolt™ which is commercially available (ThermoFisher Scientific, F10488). Blue LED illumination was used and spontaneous or electrically excited action potentials were recorded with the CCD camera via appropriate emission filter (515 nm, green light, Chroma). For calcium flux quantification monolayers were loaded with fluo-4AM (10 µM). In this assay a 6 × 6 array of wells (supplemental Fig. 1C, 36 wells total) in the 96-well plate could be imaged simultaneously to enable rapid dose response data for all compounds using up to six different doses. Post-acquisition data analysis was done using custom software (Scroll)[22],[25] with automated peak detection capability and automated repolarization quantification to determine APD80 (action potential at 80% of repolarization). […] In some experiments electrical pacing was done to control for rate of activations (supplemental Fig. 3). A custom made frame of field stimulation electrodes was engineered to enable electrical pacing to the 6 × 6 array of wells.
(§3) Action potentials were recorded in the presence of each test compound.
(§4) The effect of each compound to prolong or shorten the APD80 of hiPSC-CM monolayers was quantified relative to vehicle control values obtained in each plate. In other words, the APD80 or CaTD80 quantified at each concentration of each compound was divided by the APD80 or CaTD80 quantified for vehicle control wells. Risk score values were quantified for both fetal-like and mature hiPSC-CM monolayers.

Data set [2] concerns fetal-like hiPSC-CM monolayers. The experiment in a line: 96-well optical mapping of action potentials (FluoVolt), fetal-like monolayers. The format is cell-based, human. Particulars: for Maximum APD 80 Prolongation Risk Score (Fetal-like hiPSC-CM): maximal effect on APD independent of dose, APD80 divided by vehicle control APD80, 30 min treatment, concentrations up to 10 µM; for effect on action potential duration (APD80), fetal-like monolayers: spontaneous action potentials, result in words.
From the text: as §1, §2, §3, §4

Details of data set [3]: method as in PMID 26893184. Particulars: cited from earlier work.
Data set [4] has as its system fetal-like hiPSC-CM monolayers. The data set can be described thus: Calcium flux optical mapping (fluo-4AM), fetal-like monolayers. Particulars: dose response; n = 4 per dose. The format is cell-based, human. Here is the method:
(§5) Optical mapping was performed as essentially described recently[22] with slight modification. A schematic of the 96-well plate optical mapping set up is shown in supplemental Fig. 1. In this assay a 96-well plate is positioned below a high speed CCD camera (200 fps, 80 × 80 pixels) on a heating block to enable recording at physiological temperature (37 °C). hiPSC-CM monolayers were loaded with the membrane potential dye called FluoVolt™ which is commercially available (ThermoFisher Scientific, F10488). Blue LED illumination was used and spontaneous or electrically excited action potentials were recorded with the CCD camera via appropriate emission filter (515 nm, green light, Chroma). For calcium flux quantification monolayers were loaded with fluo-4AM (10 µM). […] Post-acquisition data analysis was done using custom software (Scroll)[22],[25] with automated peak detection capability and automated repolarization quantification to determine APD80 (action potential at 80% of repolarization). […]
(§6) Nilotinib is an anti-cancer kinase inhibitor compound with possible side effects to prolong the QT interval. […] In Fig. 7 calcium transients were recorded using fluo-4AM loaded monolayers to study the effect of nilotinib on intracellular calcium flux dynamics. […]

Data set [5] has as its system mature hiPSC-CM monolayers. The experiment in a line: Calcium flux optical mapping (fluo-4AM), mature monolayers. The format is cell-based, human. Particulars: dose response; n = 4 per dose. The procedure:
as §5, §6

Take `CCCCc1oc2ccccc2c1C(=O)c1cc(I)c(OCCN(CC)CC)c(I)c1` [Amiodarone, amiodarone]: in data set [1], the “Maximum APD 80 Prolongation Risk Score (Mature hiPSC-CM)” value was found to be 1.34 and the “effect on action potential duration (APD80), mature monolayers” value (shortened to “effect … mature monolayers”) was “prolong the APD”. For the same compound, in data set [2], the “Maximum APD 80 Prolongation Risk Score (Fetal-like hiPSC-CM)” value is on record as 0.91 and the “effect on action potential duration (APD80), fetal-like monolayers” value (shortened to “effect … fetal-like monolayers”) is “shortened action potential duration”.

`CC(C)COCC(CN(Cc1ccccc1)c1ccccc1)N1CCCC1` (stereo not shown) [Bepridil, bepridil]: in data set [1], the “Maximum APD 80 Prolongation Risk Score (Mature hiPSC-CM)” value came to 1.64. Moreover, in data set [3], the “CiPA risk class for causing Torsade de Pointes (TdP)” value (shortened to “CiPA risk class”) was “high risk”.

For the compound `COc1cc(N)c(Cl)cc1C(=O)NC1CCN(CCCOc2ccc(F)cc2)CC1OC` (stereo not shown) [Cisapride, cisapride], the “Maximum APD 80 Prolongation Risk Score (Mature hiPSC-CM)” value in data set [1] was determined as 1.15. Further, the “Maximum APD 80 Prolongation Risk Score (Fetal-like hiPSC-CM)” value in data set [2] was 1.49. In addition, the “CiPA risk class” value in data set [3] was “intermediate risk”.

Turning to `CN1CCN(C2=Nc3cc(Cl)ccc3Nc3ccccc32)CC1` [Clozapine, clozapine], the “Maximum APD 80 Prolongation Risk Score (Mature hiPSC-CM)” value in data set [1] was 1.33. The “Maximum APD 80 Prolongation Risk Score (Fetal-like hiPSC-CM)” value in data set [2] is recorded as 1.14.

For `COc1ccc([C@@H]2Sc3ccccc3N(CCN(C)C)C(=O)[C@@H]2OC(C)=O)cc1` [Diltiazem, diltiazem], in data set [2], the “Maximum APD 80 Prolongation Risk Score (Fetal-like hiPSC-CM)” value stood at 0.97.

In the case of `CN(CCOc1ccc(NS(C)(=O)=O)cc1)CCc1ccc(NS(C)(=O)=O)cc1` [Dofetilide, dofetilide], the “action potential duration alternans, mature monolayers” value in data set [1] (electrical pacing 1 Hz, 100 nM) was “not in the mature hiPSC-CM monolayers”. The “effect … mature monolayers” value in data set [1] is given as “did not have as severe action potential duration prolongation”. Moreover, the “action potential duration alternans, fetal-like monolayers” value in data set [2] (electrical pacing 1 Hz, 100 nM) is recorded as “action potential duration alternans were apparent”. Moreover, in data set [2], the “Maximum APD 80 Prolongation Risk Score (Fetal-like hiPSC-CM)” value is given as 2.14.

With `COc1cccc2c1C(=O)c1c(O)c3c(c(O)c1C2=O)C[C@@](O)(C(=O)CO)C[C@@H]3O[C@H]1C[C@H](N)[C@H](O)[C@H](C)O1` [Doxorubicin, doxorubicin], the “Maximum APD 80 Prolongation Risk Score (Mature hiPSC-CM)” value in data set [1] amounted to 1.15. For the same compound, the “Maximum APD 80 Prolongation Risk Score (Fetal-like hiPSC-CM)” value in data set [2] is 1.15.

Turning to `CNCCC(Oc1ccc(C(F)(F)F)cc1)c1ccccc1` (stereo not shown) [Fluoxetine, fluoxetine], in data set [1], the “spontaneous beating rate, mature monolayers” value is “slowed the spontaneous beating rate” and the “effect … mature monolayers” value is listed as “prolonged the action potential duration”. Besides, the “quiescence, mature monolayers” value in data set [1] (any concentration tested (up to 10.0 µmol L^−1)) is on record as “did not induce quiescence at any concentration tested”. Moreover, the “lowest concentration tested, at which action potential duration was already prolonged” value in data set [1] (mature monolayers) was 1.0 nmol/L. Moreover, the “monolayers in which quiescence was caused” value in data set [2] (10.0 µmol L^−1, 8/8 monolayers) amounted to 100%. Besides, in data set [2], the “Maximum APD 80 Prolongation Risk Score (Fetal-like hiPSC-CM)” value was determined as 1 and the “effect … fetal-like monolayers” value is reported as “did not detect any APD80 prolongation”. In addition, the “spontaneous beating frequency, fetal-like monolayers” value in data set [2] (sub-maximal doses (below 10.0 µmol L^−1)) is on record as “nor alteration of the spontaneous beating frequency”.

For the compound `Cc1cn(-c2cc(NC(=O)c3ccc(C)c(Nc4nccc(-c5cccnc5)n4)c3)cc(C(F)(F)F)c2)cn1` [Nilotinib, nilotinib], in data set [1], the “Maximum APD 80 Prolongation Risk Score (Mature hiPSC-CM)” value is 1.29 and the “effect … mature monolayers” value is on record as “APD prolongation was detected”. In addition, the “calcium transient duration 80 (CaTD80), fetal-like monolayers” value in data set [4] is reported as “increased calcium transient duration 80 (CaTD80) in a dose dependent manner”. Besides, in data set [2], the “Maximum APD 80 Prolongation Risk Score (Fetal-like hiPSC-CM)” value was 1.36 and the “effect … fetal-like monolayers” value is reported as “APD prolongation was detected”. For the same compound, in data set [5], the “calcium transient duration 80 (CaTD80), mature monolayers” value is reported as “increased calcium transient duration 80 (CaTD80) in a dose dependent manner”.

With `C=C[C@H]1C[N@@]2CC[C@H]1C[C@@H]2[C@@H](O)c1ccnc2ccc(OC)cc12` [Quinidine, quinidine], in data set [1], the “Maximum APD 80 Prolongation Risk Score (Mature hiPSC-CM)” value turned out to be 1.81. In data set [2], the “Maximum APD 80 Prolongation Risk Score (Fetal-like hiPSC-CM)” value is 1.91.

As to `CC/C(=C(\c1ccccc1)c1ccc(OCCN(C)C)cc1)c1ccccc1` [Tamoxifen, tamoxifen], in data set [1], the “Maximum APD 80 Prolongation Risk Score (Mature hiPSC-CM)” value turned out to be 1.04. In addition, the “Maximum APD 80 Prolongation Risk Score (Fetal-like hiPSC-CM)” value in data set [2] is 1.12.

As to `CC(C)(C)c1ccc(C(O)CCCN2CCC(C(O)(c3ccccc3)c3ccccc3)CC2)cc1` (stereo not shown) [Terfenadine, terfenadine], the “Maximum APD 80 Prolongation Risk Score (Mature hiPSC-CM)” value in data set [1] amounted to 1.21. For the same compound, in data set [2], the “Maximum APD 80 Prolongation Risk Score (Fetal-like hiPSC-CM)” value came to 1.43 and the “effect … fetal-like monolayers” value is “more sensitive”. Besides, the “CiPA risk class” value in data set [3] is reported as “intermediate risk”.
